Data as given in patent publication US6338843B1, “Biologically active materials” (priority 1997, dated 2002).

How the values were obtained:
L1210 cells = details: 72 h incubation, MTT
Experimental: L1210 cells were seeded at a density of 1×10^4 cells per well into 96 well ‘v’ bottomed microtiter plates (Costar) in RPMI 1640 tissue culture media (Gibeo) supplemented with 10% Foetal Calf Scrum (FCS) (Gibeo). All incubations were carried out at 37° C. in an atmosphere of 5% CO2.
The cells were then left for 24 h. Prior to being incubated with the polymers the cells were centrifuged at 1000×g for 10 minutes at room temperature. This served to pellet the cells and allow the removal of the media.
Doxorubicin and dextrin doxorubicin were then dissolved in RPMI 1640 containing 10% FCS and filter sterilised through 0.2μ filters (Aerodisk). Following this, the pellet was resuspended in media containing the appropriate concentration of drug or drug conjugate.
The tetrazolium dye MTT was used to assess cell viability. The cells were incubated for 67 h prior to the addition of the MTT. After a further incubation period of 5 h, the cells in suspension were subjected to centrifugation, the media removed and 100 μl of optical grade DMSO (Sigma) was added. The plates were read at 550 mn using a Titerteck plate reader. Results (OD) were expressed as a % of the OD seen in cell cultures containing no polymer.

rat red blood cells = assay: Stability of rat red blood cells incubated in vitro (haemoglobin release, % lysis); assay type: cell-based; details: rat RBC 2% w/v suspension in PBS; relative to Triton X-100 = 100% lysis
Experimental: Dextrins of different molecular weight were incubated with isolated rat red blood cells (RBC) and haemoglobin release detected spectrophotometrically. Various dilutions of the test polymers (dextrins) and of the reference polymer polyethyleneimine were made up in PBS and mixed with an equal volume of fresh 2% w/v suspension of rat RBCs. This preparation was centrifuged at 1500×g for 10 min at room temperature. Then, 100 μl of the supernatant was removed and the levels of haemoglobin quantitated spectrophotometrically at […]. The results illustrated in FIG. 1 were expressed as % lysis relative to that of a Triton X-100 control (Sigma) which gave 100% RBC lysis.

COc1cccc2c1C(=O)c1c(O)c3c(c(O)c1C2=O)C[C@@](O)(C(=O)CO)C[C@@H]3O[C@H]1C[C@H](N)[C@H](O)[C@H](C)O1 [doxorubicin]
toxicity to L1210 cells in vitro (L1210 cells): toxic

Triton X-100
red cell lysis (haemoglobin release) (rat red blood cells): caused haemoglobin release
